Laboratory results as given in paper PMC3445516 (PLoS ONE, 2012).
Where two headings read alike, the source gives them in different places.

What was measured:
Assay in all cases: Ambit kinase profiling, competition binding
SRC = biological target: T1, SRC (Homo sapiens, UniProt P12931)
T1 construct: purchased Ambit Biosciences (KINOMEscan)
Procedure: (§1) Also included in the kinase profile are four isoforms of PKC (δ, ε, η, θ) and eight isoforms of CAMKs (CAMKIα, δ, γ; CAMKIIα, β, δ, γ; CAMK4).
(§2) The global kinase profiling experiment was performed by Ambit Biosciences.

ACVR1B = biological target: T2, ACVR1B (Homo sapiens, UniProt P36896)
T2 construct: purchased Ambit Biosciences (KINOMEscan)
T2 sequence (P36896 24-505): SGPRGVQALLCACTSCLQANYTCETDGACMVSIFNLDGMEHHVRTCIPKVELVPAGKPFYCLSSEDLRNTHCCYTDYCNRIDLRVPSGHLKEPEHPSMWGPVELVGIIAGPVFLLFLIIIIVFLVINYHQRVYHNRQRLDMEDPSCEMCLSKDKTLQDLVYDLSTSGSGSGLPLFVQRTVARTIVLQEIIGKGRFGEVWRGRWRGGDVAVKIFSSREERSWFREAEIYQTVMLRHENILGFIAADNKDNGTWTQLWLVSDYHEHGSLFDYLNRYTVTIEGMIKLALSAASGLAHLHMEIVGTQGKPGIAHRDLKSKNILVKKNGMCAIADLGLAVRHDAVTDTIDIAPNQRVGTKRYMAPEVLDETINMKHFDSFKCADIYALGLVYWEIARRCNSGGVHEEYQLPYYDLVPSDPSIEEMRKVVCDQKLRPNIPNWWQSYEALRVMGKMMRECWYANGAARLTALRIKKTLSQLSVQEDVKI
Procedure: as §1, §2

DDR1 = biological target: T3, DDR1 (Homo sapiens, UniProt Q08345)
T3 construct: purchased Ambit Biosciences (KINOMEscan)
T3 sequence (Q08345 19-913): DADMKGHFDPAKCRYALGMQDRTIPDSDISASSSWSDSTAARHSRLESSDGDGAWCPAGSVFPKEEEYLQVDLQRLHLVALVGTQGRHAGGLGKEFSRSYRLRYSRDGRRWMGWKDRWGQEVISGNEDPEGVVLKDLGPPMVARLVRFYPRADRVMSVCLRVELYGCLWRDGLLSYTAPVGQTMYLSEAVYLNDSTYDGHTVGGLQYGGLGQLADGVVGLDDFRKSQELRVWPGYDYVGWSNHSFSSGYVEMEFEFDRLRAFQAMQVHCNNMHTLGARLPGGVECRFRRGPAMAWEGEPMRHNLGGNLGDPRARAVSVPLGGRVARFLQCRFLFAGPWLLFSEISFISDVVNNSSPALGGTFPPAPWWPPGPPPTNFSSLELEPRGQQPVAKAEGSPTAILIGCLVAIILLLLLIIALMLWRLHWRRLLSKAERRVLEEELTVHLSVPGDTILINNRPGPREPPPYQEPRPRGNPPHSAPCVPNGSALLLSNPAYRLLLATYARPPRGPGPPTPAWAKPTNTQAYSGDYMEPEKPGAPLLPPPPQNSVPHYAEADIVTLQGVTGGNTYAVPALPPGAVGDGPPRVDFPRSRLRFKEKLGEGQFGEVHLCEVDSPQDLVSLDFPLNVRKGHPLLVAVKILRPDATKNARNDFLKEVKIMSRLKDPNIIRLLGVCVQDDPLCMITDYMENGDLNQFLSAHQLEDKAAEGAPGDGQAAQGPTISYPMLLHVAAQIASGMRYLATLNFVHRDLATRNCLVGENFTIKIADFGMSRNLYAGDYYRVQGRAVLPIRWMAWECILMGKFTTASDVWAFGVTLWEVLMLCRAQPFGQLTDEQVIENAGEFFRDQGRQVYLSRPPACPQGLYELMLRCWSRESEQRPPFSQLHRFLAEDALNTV
Procedure: as §1, §2

JNK1 = biological target: T4, JNK1 (Homo sapiens, UniProt P45983); details: for % Competition: 10 µM
T4 construct: purchased Ambit Biosciences (KINOMEscan)
T4 sequence (P45983 whole entry): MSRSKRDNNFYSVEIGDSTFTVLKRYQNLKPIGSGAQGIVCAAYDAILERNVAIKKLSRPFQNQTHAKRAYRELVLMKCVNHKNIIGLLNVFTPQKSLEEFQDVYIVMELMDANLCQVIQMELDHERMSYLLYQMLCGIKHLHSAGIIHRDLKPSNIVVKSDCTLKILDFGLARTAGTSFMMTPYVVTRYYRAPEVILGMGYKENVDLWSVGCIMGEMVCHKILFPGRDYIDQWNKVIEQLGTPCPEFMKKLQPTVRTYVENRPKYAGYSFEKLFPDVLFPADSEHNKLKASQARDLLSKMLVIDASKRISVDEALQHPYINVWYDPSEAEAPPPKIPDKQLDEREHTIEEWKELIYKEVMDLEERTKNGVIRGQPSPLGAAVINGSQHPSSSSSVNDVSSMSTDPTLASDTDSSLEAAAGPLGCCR
Procedure: as §1, §2

PAK4 = biological target: T5, PAK4 (Homo sapiens, UniProt O96013)
T5 construct: purchased Ambit Biosciences (KINOMEscan)
T5 sequence (O96013 whole entry): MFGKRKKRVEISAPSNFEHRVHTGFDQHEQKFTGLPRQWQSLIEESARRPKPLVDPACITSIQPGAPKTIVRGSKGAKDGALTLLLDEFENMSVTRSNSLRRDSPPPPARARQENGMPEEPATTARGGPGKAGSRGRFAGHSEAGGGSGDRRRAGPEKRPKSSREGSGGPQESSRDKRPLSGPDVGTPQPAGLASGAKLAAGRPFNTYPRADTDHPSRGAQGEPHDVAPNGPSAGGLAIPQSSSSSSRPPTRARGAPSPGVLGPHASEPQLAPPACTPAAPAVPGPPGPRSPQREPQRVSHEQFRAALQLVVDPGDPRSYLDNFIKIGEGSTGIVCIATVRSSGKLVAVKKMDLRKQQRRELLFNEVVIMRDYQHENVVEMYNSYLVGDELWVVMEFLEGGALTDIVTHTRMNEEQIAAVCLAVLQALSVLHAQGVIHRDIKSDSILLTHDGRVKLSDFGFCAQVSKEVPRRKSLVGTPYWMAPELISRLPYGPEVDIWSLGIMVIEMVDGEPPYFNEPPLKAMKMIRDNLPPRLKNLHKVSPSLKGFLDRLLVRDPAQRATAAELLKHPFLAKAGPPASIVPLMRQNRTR
Procedure: as §1, §2

PCTK3 = biological target: T6, PCTK3 (Homo sapiens, UniProt Q07002)
T6 construct: purchased Ambit Biosciences (KINOMEscan)
T6 sequence (Q07002 whole entry): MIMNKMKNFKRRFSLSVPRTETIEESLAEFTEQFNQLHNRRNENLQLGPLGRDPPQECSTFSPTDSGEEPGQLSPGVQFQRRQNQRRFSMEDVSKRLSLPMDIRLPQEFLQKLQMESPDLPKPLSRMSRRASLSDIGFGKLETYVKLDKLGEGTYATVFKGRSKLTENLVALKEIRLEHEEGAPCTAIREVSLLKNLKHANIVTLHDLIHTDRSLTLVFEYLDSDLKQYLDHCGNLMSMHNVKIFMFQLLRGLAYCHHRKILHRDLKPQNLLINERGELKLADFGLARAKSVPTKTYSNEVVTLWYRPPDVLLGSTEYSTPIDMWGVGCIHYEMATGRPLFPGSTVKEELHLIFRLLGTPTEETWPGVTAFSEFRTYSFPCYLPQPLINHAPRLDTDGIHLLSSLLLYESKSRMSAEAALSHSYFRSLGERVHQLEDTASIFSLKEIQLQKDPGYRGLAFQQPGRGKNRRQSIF
Procedure: as §1, §2

DDR2 = biological target: T7, DDR2 (Homo sapiens, UniProt Q16832)
T7 construct: purchased Ambit Biosciences (KINOMEscan)
T7 sequence (Q16832 22-855): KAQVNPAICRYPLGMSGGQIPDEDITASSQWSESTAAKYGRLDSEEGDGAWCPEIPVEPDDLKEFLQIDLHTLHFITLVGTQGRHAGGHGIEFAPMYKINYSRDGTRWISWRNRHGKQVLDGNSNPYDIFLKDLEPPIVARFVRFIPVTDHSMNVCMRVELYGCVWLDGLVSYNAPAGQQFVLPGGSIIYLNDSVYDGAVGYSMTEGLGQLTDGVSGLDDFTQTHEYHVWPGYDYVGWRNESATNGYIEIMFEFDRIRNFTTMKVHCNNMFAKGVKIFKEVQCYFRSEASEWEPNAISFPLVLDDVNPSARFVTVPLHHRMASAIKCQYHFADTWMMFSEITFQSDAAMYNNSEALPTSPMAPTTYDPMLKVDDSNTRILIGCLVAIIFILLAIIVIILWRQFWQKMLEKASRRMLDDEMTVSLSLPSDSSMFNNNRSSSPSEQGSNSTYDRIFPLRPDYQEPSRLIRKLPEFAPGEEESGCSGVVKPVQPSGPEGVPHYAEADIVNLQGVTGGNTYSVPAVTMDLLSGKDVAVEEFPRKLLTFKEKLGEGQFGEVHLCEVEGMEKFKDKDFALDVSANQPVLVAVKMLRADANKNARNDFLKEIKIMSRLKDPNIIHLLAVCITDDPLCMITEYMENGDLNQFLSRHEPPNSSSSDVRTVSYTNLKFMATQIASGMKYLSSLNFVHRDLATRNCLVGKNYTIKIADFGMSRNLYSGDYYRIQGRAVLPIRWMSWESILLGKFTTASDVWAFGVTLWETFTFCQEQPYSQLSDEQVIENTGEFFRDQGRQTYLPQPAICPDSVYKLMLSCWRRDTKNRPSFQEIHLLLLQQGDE
Procedure: as §1, §2

RAF1 = biological target: T8, RAF1 (Homo sapiens, UniProt P04049)
T8 construct: purchased Ambit Biosciences (KINOMEscan)
Procedure: as §1, §2

YANK2 = biological target: T9, YANK2 (Homo sapiens, UniProt Q9NY57)
T9 construct: purchased Ambit Biosciences (KINOMEscan)
T9 sequence (Q9NY57 whole entry): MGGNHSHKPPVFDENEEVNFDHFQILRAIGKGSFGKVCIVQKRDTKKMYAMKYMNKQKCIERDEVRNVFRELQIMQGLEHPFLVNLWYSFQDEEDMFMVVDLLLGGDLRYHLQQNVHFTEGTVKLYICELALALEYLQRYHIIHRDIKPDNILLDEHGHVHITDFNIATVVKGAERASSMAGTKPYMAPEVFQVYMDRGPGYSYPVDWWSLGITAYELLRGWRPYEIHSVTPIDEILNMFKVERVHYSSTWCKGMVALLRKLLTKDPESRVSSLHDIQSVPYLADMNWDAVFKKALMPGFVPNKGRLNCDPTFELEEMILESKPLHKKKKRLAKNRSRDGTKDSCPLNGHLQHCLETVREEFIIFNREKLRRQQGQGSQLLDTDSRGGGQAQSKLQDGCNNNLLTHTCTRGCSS
Procedure: as §1, §2

STK16 = biological target: T10, STK16 (Homo sapiens, UniProt O75716)
T10 construct: purchased Ambit Biosciences (KINOMEscan)
T10 sequence (O75716 whole entry): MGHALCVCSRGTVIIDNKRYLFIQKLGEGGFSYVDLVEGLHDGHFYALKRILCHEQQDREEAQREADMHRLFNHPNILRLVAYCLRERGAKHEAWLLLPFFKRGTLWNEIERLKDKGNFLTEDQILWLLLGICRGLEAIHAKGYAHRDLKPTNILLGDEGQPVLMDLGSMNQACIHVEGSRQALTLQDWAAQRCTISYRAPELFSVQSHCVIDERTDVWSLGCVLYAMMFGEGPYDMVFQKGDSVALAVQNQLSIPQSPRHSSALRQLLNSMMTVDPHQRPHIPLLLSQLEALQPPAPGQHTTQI
Procedure: as §1, §2

CSNK1G2 = biological target: T11, CSNK1G2 (Homo sapiens, UniProt P78368); details: for % Competition: 10 µM
T11 construct: purchased Ambit Biosciences (KINOMEscan)
T11 sequence (P78368 whole entry): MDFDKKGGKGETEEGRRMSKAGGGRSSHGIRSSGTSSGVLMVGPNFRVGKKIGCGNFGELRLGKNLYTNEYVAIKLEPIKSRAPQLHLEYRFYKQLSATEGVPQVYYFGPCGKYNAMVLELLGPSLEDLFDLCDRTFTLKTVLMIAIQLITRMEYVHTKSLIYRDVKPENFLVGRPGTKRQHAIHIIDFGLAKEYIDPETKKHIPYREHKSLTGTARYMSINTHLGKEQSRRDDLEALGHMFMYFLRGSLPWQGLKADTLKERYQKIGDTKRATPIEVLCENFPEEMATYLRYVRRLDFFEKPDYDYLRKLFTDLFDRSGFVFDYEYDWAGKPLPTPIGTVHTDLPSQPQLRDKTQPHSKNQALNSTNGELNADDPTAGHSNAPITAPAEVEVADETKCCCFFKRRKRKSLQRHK
Procedure: as §1, §2

CDK7 = biological target: T12, CDK7 (Homo sapiens, UniProt P50613)
T12 construct: purchased Ambit Biosciences (KINOMEscan)
T12 sequence (P50613 whole entry): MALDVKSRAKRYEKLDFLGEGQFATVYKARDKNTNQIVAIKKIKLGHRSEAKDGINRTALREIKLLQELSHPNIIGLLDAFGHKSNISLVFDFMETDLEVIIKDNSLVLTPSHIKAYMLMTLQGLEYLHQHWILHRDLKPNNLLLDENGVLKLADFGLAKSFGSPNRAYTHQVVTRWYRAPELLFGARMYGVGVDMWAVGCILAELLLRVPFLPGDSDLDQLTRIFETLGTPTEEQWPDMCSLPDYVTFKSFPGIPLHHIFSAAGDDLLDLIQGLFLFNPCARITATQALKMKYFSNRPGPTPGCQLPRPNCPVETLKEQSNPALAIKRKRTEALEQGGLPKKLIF
Procedure: as §1, §2

T1 sequence (P12931 whole entry): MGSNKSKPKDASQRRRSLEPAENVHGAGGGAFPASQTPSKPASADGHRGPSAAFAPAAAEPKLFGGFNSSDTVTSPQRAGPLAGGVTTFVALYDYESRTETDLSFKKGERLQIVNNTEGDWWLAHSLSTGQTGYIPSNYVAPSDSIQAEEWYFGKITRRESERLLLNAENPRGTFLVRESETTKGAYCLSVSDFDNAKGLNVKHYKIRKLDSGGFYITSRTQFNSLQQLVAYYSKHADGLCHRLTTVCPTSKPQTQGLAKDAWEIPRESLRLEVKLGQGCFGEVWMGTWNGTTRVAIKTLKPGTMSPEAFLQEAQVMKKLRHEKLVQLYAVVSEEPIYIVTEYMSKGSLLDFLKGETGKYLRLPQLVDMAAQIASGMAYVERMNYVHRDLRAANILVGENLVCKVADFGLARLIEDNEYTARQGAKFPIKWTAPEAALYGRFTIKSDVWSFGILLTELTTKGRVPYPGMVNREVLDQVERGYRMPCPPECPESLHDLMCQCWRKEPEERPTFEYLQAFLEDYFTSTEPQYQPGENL

## Fc1ccc(-c2c(-c3ccncc3)[nH]c3nccnc23)cc1 [Compound 122]
SRC; SRC, 10 µM, read-out: % Competition
  inhibition at 10 µM: 87%
ACVR1B; ACVR1B, 10 µM, read-out: % Competition
  inhibition at 10 µM: 91%
DDR1; DDR1, 10 µM, read-out: % Competition
  inhibition at 10 µM: 100%
JNK1
  % Competition: 100%
PAK4; PAK4, 10 µM, read-out: % Competition
  inhibition at 10 µM: 82%
PCTK3; PCTK3, 10 µM, read-out: % Competition
  inhibition at 10 µM: 77%
DDR2; DDR2, 10 µM, read-out: % Competition
  inhibition at 10 µM: 100%
RAF1; RAF1, 10 µM, read-out: % Competition
  inhibition at 10 µM: 81%
YANK2; YANK2, 10 µM, read-out: % Competition
  inhibition at 10 µM: 89%
STK16; STK16, 10 µM, read-out: % Competition
  inhibition at 10 µM: 96%
CSNK1G2
  % Competition: 82%
CDK7; CDK7, 10 µM, read-out: % Competition
  inhibition at 10 µM: 100%

## CC(O)CNc1cc(-c2[nH]c3cccnc3c2-c2ccc(F)cc2)ccn1 (stereo not drawn) [Compound 140]
SRC; read-out: % Competition
  inhibition at 10 µM: < 50%
ACVR1B; read-out: % Competition
  inhibition at 10 µM: < 50%
DDR1; read-out: % Competition
  inhibition at 10 µM: 98%
JNK1
  % Competition: 100%
PAK4; read-out: % Competition
  inhibition at 10 µM: < 50%
PCTK3; read-out: % Competition
  inhibition at 10 µM: < 50%
DDR2; read-out: % Competition
  inhibition at 10 µM: 67%
RAF1; read-out: % Competition
  inhibition at 10 µM: < 50%
YANK2; read-out: % Competition
  inhibition at 10 µM: < 50%
STK16; read-out: % Competition
  inhibition at 10 µM: < 50%
CSNK1G2
  % Competition: 89%
CDK7; read-out: % Competition
  inhibition at 10 µM: < 50%

## Fc1ccc(-c2c(-c3ccncc3)[nH]c3nccnc23)cc1 [RO1155697-000-005]
SRC; SRC, compound concentration 10 uM, read-out: Percent Competition
  inhibition at 10 µM: 87%
ACVR1B; ACVR1B, compound concentration 10 uM, read-out: Percent Competition
  inhibition at 10 µM: 91%
DDR1; DDR1, compound concentration 10 uM, read-out: Percent Competition
  inhibition at 10 µM: 100%
JNK1; compound concentration 10 uM
  Percent Competition: 100%
PAK4; PAK4, compound concentration 10 uM, read-out: Percent Competition
  inhibition at 10 µM: 82%
PCTK3; PCTK3, compound concentration 10 uM, read-out: Percent Competition
  inhibition at 10 µM: 77%
DDR2; DDR2, compound concentration 10 uM, read-out: Percent Competition
  inhibition at 10 µM: 100%
RAF1; RAF1, compound concentration 10 uM, read-out: Percent Competition
  inhibition at 10 µM: 81%
YANK2; YANK2, compound concentration 10 uM, read-out: Percent Competition
  inhibition at 10 µM: 89%
STK16; STK16, compound concentration 10 uM, read-out: Percent Competition
  inhibition at 10 µM: 96%
CSNK1G2; compound concentration 10 uM
  Percent Competition: 82%
CDK7; CDK7, compound concentration 10 uM, read-out: Percent Competition
  inhibition at 10 µM: 100%
